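Growth conditions: 96-well plates. Treatment: test compound, 48 hours, 5 concentrations. Analysis: linear interpolation between bracketing concentrations; unreached endpoints set to highest concentration. TGI marks complete inhibition of growth.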
How the values were obtained:
Assay in all cases: NCI-60 cell line screen, 48 h
[1] = test system: 786-0 renal
[2] = test system: A498 renal
[3] = test system: A549 NSCLC
[4] = test system: ACHN renal
[5] = test system: BT-549 breast
[6] = test system: CAKI-1 renal
[7] = test system: CCRF-CEM leukemia
[8] = test system: COLO 205 colon
[9] = test system: DU-145 prostate
[10] = test system: EKVX NSCLC
[11] = test system: HCC-2998 colon
[12] = test system: HCT-116 colon
[13] = test system: HCT-15 colon
[14] = test system: HL-60(TB) leukemia
[15] = test system: HOP-62 NSCLC
[16] = test system: HS 578T breast
[17] = test system: HT29 colon
[18] = test system: IGROV1 ovarian
[19] = test system: K-562 leukemia
[20] = test system: KM12 colon
[21] = test system: LOX IMVI melanoma
[22] = test system: M14 melanoma
[23] = test system: MALME-3M melanoma
[24] = test system: MCF7 breast
[25] = test system: MDA-MB-231 breast
[26] = test system: MDA-MB-435
[27] = test system: MDA-N
[28] = test system: MOLT-4 leukemia
[29] = test system: NCI-H226 lung
[30] = test system: NCI-H23 lung
[31] = test system: NCI-H460 lung
[32] = test system: NCI-H522 lung
[33] = test system: NCI/ADR-RES ovarian
[34] = test system: OVCAR-3 ovarian
[35] = test system: OVCAR-4 ovarian
[36] = test system: OVCAR-5 ovarian
[37] = test system: OVCAR-8 ovarian
[38] = test system: PC-3 prostate
[39] = test system: RPMI-8226 leukemia
[40] = test system: RXF 393 renal
[41] = test system: SF-268 CNS
[42] = test system: SF-295 CNS
[43] = test system: SF-539 CNS
[44] = test system: SK-MEL-28 melanoma
[45] = test system: SK-MEL-5 melanoma
[46] = test system: SK-OV-3 ovarian
[47] = test system: SN12C renal
[48] = test system: SNB-19 CNS
[49] = test system: SW-620 colon
[50] = test system: T-47D breast
[51] = test system: TK-10 renal
[52] = test system: U251 CNS
[53] = test system: UACC-257 melanoma
[54] = test system: UACC-62 melanoma
[55] = test system: UO-31 renal
[56] = test system: HOP-92 NSCLC
[57] = test system: SK-MEL-2 melanoma
[58] = test system: SNB-75 CNS
[59] = test system: SR leukemia

## CCn1c(CCCc2nc3c([nH]2)c(=O)n(C)c(=O)n3C)nc2c1c(=O)n(C)c(=O)n2C
[1]
  TGI: > 100 µM
[2]
  TGI: > 100 µM
[3]
  TGI: > 100 µM
[4]
  TGI: > 100 µM
[5]
  TGI: > 100 µM
[6]
  TGI: > 100 µM
[7]
  TGI: > 100 µM
[8]
  TGI: 27 µM
[9]
  TGI: > 100 µM
[10]
  TGI: > 100 µM
[11]
  TGI: > 100 µM
[12]
  TGI: > 100 µM
[13]
  TGI: > 100 µM
[14]
  TGI: > 100 µM
[15]
  TGI: > 100 µM
[16]
  TGI: > 100 µM
[17]
  TGI: > 100 µM
[18]
  TGI: > 100 µM
[19]
  TGI: > 100 µM
[20]
  TGI: > 100 µM
[21]
  TGI: > 100 µM
[22]
  TGI: > 100 µM
[23]
  TGI: > 100 µM
[24]
  TGI: > 100 µM
[25]
  TGI: > 100 µM
[26]
  TGI: > 100 µM
[27]
  TGI: > 100 µM
[28]
  TGI: > 100 µM
[29]
  TGI: 30.6 µM
[30]
  TGI: > 100 µM
[31]
  TGI: > 100 µM
[32]
  TGI: > 100 µM
[33]
  TGI: > 100 µM
[34]
  TGI: > 100 µM
[35]
  TGI: > 100 µM
[36]
  TGI: > 100 µM
[37]
  TGI: > 100 µM
[38]
  TGI: > 100 µM
[39]
  TGI: > 100 µM
[40]
  TGI: > 100 µM
[41]
  TGI: > 100 µM
[42]
  TGI: > 100 µM
[43]
  TGI: 30.5 µM
[44]
  TGI: > 100 µM
[45]
  TGI: 27.8 µM
[46]
  TGI: > 100 µM
[47]
  TGI: > 100 µM
[48]
  TGI: > 100 µM
[49]
  TGI: > 100 µM
[50]
  TGI: > 100 µM
[51]
  TGI: > 100 µM
[52]
  TGI: > 100 µM
[53]
  TGI: > 100 µM
[54]
  TGI: > 100 µM
[55]
  TGI: > 100 µM

## NC1(c2cc3ccccc3s2)CCCCCC1
[1]
  TGI: 28.8 µM
[2]
  TGI: 35.2 µM
[3]
  TGI: 34.2 µM
[4]
  TGI: 33.4 µM
[5]
  TGI: 32.6 µM
[6]
  TGI: 26.8 µM
[7]
  TGI: 35.4 µM
[8]
  TGI: 26.5 µM
[9]
  TGI: 30.9 µM
[10]
  TGI: 33.2 µM
[11]
  TGI: 4.49 µM
[12]
  TGI: 29.5 µM
[13]
  TGI: 36.9 µM
[14]
  TGI: 31.5 µM
[15]
  TGI: 27.7 µM
[56]
  TGI: 30.5 µM
[17]
  TGI: 29.3 µM
[18]
  TGI: 32.6 µM
[19]
  TGI: 28.1 µM
[20]
  TGI: 30.5 µM
[21]
  TGI: 43 µM
[22]
  TGI: 37.2 µM
[24]
  TGI: 29.7 µM
[25]
  TGI: 29.1 µM
[26]
  TGI: 29.7 µM
[27]
  TGI: 30.4 µM
[28]
  TGI: 32.6 µM
[29]
  TGI: 38.4 µM
[30]
  TGI: 34 µM
[31]
  TGI: 28.6 µM
[33]
  TGI: 33.7 µM
[34]
  TGI: 29.2 µM
[35]
  TGI: 27.7 µM
[36]
  TGI: 28.7 µM
[37]
  TGI: 35.8 µM
[38]
  TGI: 24 µM
[40]
  TGI: 25.4 µM
[42]
  TGI: 32.5 µM
[43]
  TGI: 32.8 µM
[57]
  TGI: 22.1 µM
[44]
  TGI: 30.9 µM
[45]
  TGI: 28.8 µM
[46]
  TGI: 31.2 µM
[47]
  TGI: 31 µM
[48]
  TGI: 34.8 µM
[58]
  TGI: 23.2 µM
[59]
  TGI: 36.6 µM
[49]
  TGI: 31.1 µM
[51]
  TGI: 28.8 µM
[52]
  TGI: 29.1 µM
[53]
  TGI: 30.1 µM
[54]
  TGI: 31.9 µM
[55]
  TGI: 28.1 µM

## COC(=O)/C1=C/C=C\C[C@@]2(C)CC(c3ccoc3)OC(=O)[C@@H]2CC[C@H]1C (some centres undefined)
[1]
  TGI: > 25 µM
[2]
  TGI: > 25 µM
[3]
  TGI: > 25 µM
[4]
  TGI: > 25 µM
[5]
  TGI: > 25 µM
[6]
  TGI: > 25 µM
[7]
  TGI: > 25 µM
[8]
  TGI: > 25 µM
[10]
  TGI: > 25 µM
[11]
  TGI: > 25 µM
[12]
  TGI: > 25 µM
[13]
  TGI: > 25 µM
[14]
  TGI: > 25 µM
[15]
  TGI: > 25 µM
[56]
  TGI: > 25 µM
[16]
  TGI: > 25 µM
[17]
  TGI: > 25 µM
[18]
  TGI: > 25 µM
[19]
  TGI: > 25 µM
[20]
  TGI: > 25 µM
[21]
  TGI: > 25 µM
[22]
  TGI: > 25 µM
[23]
  TGI: > 25 µM
[24]
  TGI: > 25 µM
[25]
  TGI: > 25 µM
[27]
  TGI: > 25 µM
[28]
  TGI: > 25 µM
[29]
  TGI: > 25 µM
[30]
  TGI: > 25 µM
[31]
  TGI: > 25 µM
[33]
  TGI: > 25 µM
[34]
  TGI: > 25 µM
[35]
  TGI: > 25 µM
[36]
  TGI: > 25 µM
[37]
  TGI: > 25 µM
[38]
  TGI: > 25 µM
[40]
  TGI: > 25 µM
[42]
  TGI: > 25 µM
[43]
  TGI: > 25 µM
[57]
  TGI: > 25 µM
[44]
  TGI: > 25 µM
[45]
  TGI: > 25 µM
[46]
  TGI: > 25 µM
[47]
  TGI: > 25 µM
[48]
  TGI: > 25 µM
[58]
  TGI: > 25 µM
[59]
  TGI: > 25 µM
[49]
  TGI: > 25 µM
[51]
  TGI: > 25 µM
[52]
  TGI: > 25 µM
[53]
  TGI: > 25 µM
[54]
  TGI: > 25 µM
[55]
  TGI: > 25 µM

## COC1C(O)C(C)OC(O[C@H]2CC[C@@]3(C)C(CC[C@@H]4[C@@H]3CC[C@]3(C)[C@@H](C(C)OC5OC(CO)C(O)C(O)C5O)CC[C@]43O)C2)C1O (some centres undefined)
[1]
  TGI: > 25 µM
[2]
  TGI: > 25 µM
[3]
  TGI: > 25 µM
[4]
  TGI: > 25 µM
[6]
  TGI: > 25 µM
[7]
  TGI: > 25 µM
[10]
  TGI: > 25 µM
[11]
  TGI: > 25 µM
[12]
  TGI: > 25 µM
[13]
  TGI: > 25 µM
[14]
  TGI: > 25 µM
[15]
  TGI: > 25 µM
[56]
  TGI: > 25 µM
[16]
  TGI: > 25 µM
[17]
  TGI: > 25 µM
[18]
  TGI: > 25 µM
[19]
  TGI: > 25 µM
[20]
  TGI: > 25 µM
[21]
  TGI: > 25 µM
[22]
  TGI: > 25 µM
[24]
  TGI: > 25 µM
[25]
  TGI: > 25 µM
[26]
  TGI: > 25 µM
[27]
  TGI: > 25 µM
[28]
  TGI: > 25 µM
[29]
  TGI: > 25 µM
[30]
  TGI: > 25 µM
[31]
  TGI: > 25 µM
[32]
  TGI: > 25 µM
[33]
  TGI: > 25 µM
[34]
  TGI: > 25 µM
[35]
  TGI: > 25 µM
[36]
  TGI: > 25 µM
[37]
  TGI: > 25 µM
[38]
  TGI: > 25 µM
[39]
  TGI: > 25 µM
[41]
  TGI: > 25 µM
[42]
  TGI: > 25 µM
[43]
  TGI: > 25 µM
[57]
  TGI: > 25 µM
[44]
  TGI: > 25 µM
[45]
  TGI: > 25 µM
[46]
  TGI: > 25 µM
[47]
  TGI: > 25 µM
[48]
  TGI: > 25 µM
[58]
  TGI: > 25 µM
[59]
  TGI: > 25 µM
[49]
  TGI: > 25 µM
[51]
  TGI: > 25 µM
[52]
  TGI: > 25 µM
[53]
  TGI: > 25 µM
[54]
  TGI: > 25 µM
[55]
  TGI: > 25 µM
